Test results taken from patent publication US20200325543A1, “DIAGNOSTIC METHOD” (TOLREMO THERAPEUTICS AG, priority 2017, published 2020).

Columns and labels:
Assay type in all cases: cell-based
S6K and BAD = assay: Survival signaling by Western blot in A375-P/pTRIPZ cells; conditions: A375-P/pTRIPZ-control or -SOX2 cells, PLX4720 48 h
Procedure: (A) A375-P cells were transfected with 100 nM siRNA targeting SOX2 or a negative control siRNA. Cells were then treated with PLX4720 (BRAFi) or DMSO for 48 h. 2 h before harvesting, cells were pulsed with 3 uM EdU to label cycling cells. EdU-positive cells were detected using flow cytometry. Note that SOX2 knockdown has no effect on cell proliferation when BRAF is active (DMSO) but reduces the pool of drug-tolerant, cycling cells in the BRAFi condition. Representative data is shown. (B) Quantification of experiment (A). For each condition, percentage of cycling cells upon siRNA knockdown of SOX2 was normalized to the negative control siRNA. Data shown represent mean of independent biological triplicates ±SEM. (C) A375-P cells stably transduced with pTRIPZ-SOX2 vector were treated with the indicated concentrations of doxycycline for three days or with 1 μM PLX4720 (PLX) for 24 h. SOX2 overexpression was confirmed by Western blot analysis. Lamin A served as loading control. Individual concentrations were assessed in at least two independent experiments. Representative results are shown. […] EdU-positive cells were detected using flow cytometry. […] Cell viability was assessed by PrestoBlue assay and IC50 values were calculated. […] Survival signaling was assessed by Western blot. […]

[1] = tested on: genes associated with stemness/EMT; assay: RNA-Seq / qPCR of genes associated with stemness/EMT in melanoma cells; conditions: A375-P cells, 1 μM PLX4720, 0.5 μM AZD6244 or both, 24 h, versus 0.01% DMSO
Procedure: Data shown represent mean of independent biological triplicates ±SEM. (E) Western blot analysis of the same experiment as shown in (D). […] P-ERK1/2 levels served as positive treatment controls. Total ERK1/2 levels served as loading control. (F) A375-P cells were treated with 1 μM PLX4720, 0.5 μM AZD6244 (MEK1/2 inhibitor) or 0.01% DMSO for the indicated times and SOX2 levels were assessed by Western blot analysis. […] (G) A375-P cells were treated with 1 μM PLX4720 (BRAFi), 0.5 μM AZD6244 (MEKi), a combination of both drugs or 0.01% DMSO for the indicated times and SOX2 levels were assessed by Western blot analysis. […] For all Western blots, individual time points were assessed in at least two independent experiments. Representative data is shown.

SOX2 = SOX2 levels by Western blot in A375-P cells; conditions: 1 μM PLX4720, 0.5 μM AZD6244 or both, indicated times, versus 0.01% DMSO
Procedure: (A) A375-P cells were treated with PLX4720 (BRAFi) or DMSO for 6 h, RNA was isolated and RNA-Seq was performed. […] Differentially expressed genes (DEGs) selected for pathway analysis are represented by red and blue dots depending on the direction of the transcriptional change (red genes are induced upon PLX4720, blue genes are repressed upon PLX4720). (B) Bar graphs showing the five top pathways with significant enrichment of the analyzed DEGs. Longer bars indicate stronger significance. (C) Top deregulated genes upon treatment with PLX4720 (left column). Top genes induced and repressed by PLX4720 are shown in separate lists. (D) Indicated cell lines were treated with 1 μM PLX4720 or 0.01% DMSO (0 h) for the indicated times and the expressional changes of selected genes associated with stemness/EMT were confirmed by qPCR. […] As key player in the sternness signature, SOX2 levels were assessed. […] (F) A375-P cells were treated with 1 μM PLX4720, 0.5 μM AZD6244 (MEK1/2 inhibitor) or 0.01% DMSO for the indicated times and SOX2 levels were assessed by Western blot analysis. […] (G) A375-P cells were treated with 1 μM PLX4720 (BRAFi), 0.5 μM AZD6244 (MEKi), a combination of both drugs or 0.01% DMSO for the indicated times and SOX2 levels were assessed by Western blot analysis. […] For all Western blots, individual time points were assessed in at least two independent experiments. […]

CCCS(=O)(=O)Nc1ccc(F)c(C(=O)c2c[nH]c3ncc(Cl)cc23)c1F [PLX4720]
Survival signaling via S6K and BAD (Western blot) (S6K and BAD): repressed | expressional changes of selected genes associated with stemness/EMT (qPCR) [1]: comparable effects on transcript levels | SOX2 levels (Western blot) (SOX2): induce similar SOX2 levels
